Assay results as given in ChEMBL document CHEMBL1201862, “PubChem BioAssay data set” (2004).
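Each compound was tested at five concentrations against cells in 96-well plates for 48 hours. At the GI50, growth is halved.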 The source made the active and inactive calls. Cut-off read from the data, not from the text of the source: active = GI50 up to about 1.1 µM and inactive = higher.

Key:
Assay in all cases: NCI-60 cell line screen, 48 h
CCRF-CEM = tested on: CCRF-CEM
COLO 205 = tested on: COLO 205
DU-145 = tested on: DU-145
EKVX = tested on: EKVX
HCC 2998 = tested on: HCC 2998
HCT-116 = tested on: HCT-116
HL-60 = tested on: HL-60
HT-29 = tested on: HT-29
IGROV-1 = tested on: IGROV-1
KM12 = tested on: KM12
MDA-MB-231 = tested on: MDA-MB-231
NCI-H522 = tested on: NCI-H522
NCI/ADR-RES = tested on: NCI/ADR-RES
OVCAR-3 = tested on: OVCAR-3
SF-539 = tested on: SF-539
SN12C = tested on: SN12C
SW-620 = tested on: SW-620
T47D = tested on: T47D
TK-10 = tested on: TK-10
U-251 = tested on: U-251

Measured: GI50

CC1(C)CCC[C@@]2(C)C1CC[C@@]1(CO1)[C@@H]2/C=C\C(C=O)CC=O (stereo not given in full)
inactive: CCRF-CEM 17.3 µM | COLO 205 > 91.8 µM | DU-145 > 100 µM | EKVX > 100 µM | HCC 2998 > 100 µM | HCT-116 62.2 µM | HL-60 21.6 µM | HT-29 > 56.6 µM | IGROV-1 > 100 µM | KM12 > 67.9 µM | MDA-MB-231 > 100 µM | NCI-H522 42.4 µM | NCI/ADR-RES > 100 µM | OVCAR-3 > 100 µM | SF-539 > 87.3 µM | SN12C > 68.1 µM | SW-620 67.1 µM | T47D 99.3 µM | TK-10 > 100 µM | U-251 > 96.6 µM

CCNc1ncnc2sc(SCc3ccccc3)nc12
inactive: CCRF-CEM 33.9 µM | COLO 205 36.1 µM | DU-145 75.7 µM | EKVX 42 µM | HCC 2998 81.1 µM | HCT-116 85.9 µM | HL-60 16.6 µM | HT-29 58.1 µM | IGROV-1 > 100 µM | KM12 48.4 µM | MDA-MB-231 > 100 µM | NCI-H522 62.2 µM | NCI/ADR-RES 34.8 µM | OVCAR-3 > 100 µM | SF-539 > 100 µM | SN12C > 100 µM | SW-620 > 100 µM | T47D 75.5 µM | TK-10 60.7 µM | U-251 > 100 µM

Nc1ccc(C(=O)N/C(=C\c2cccc([N+](=O)[O-])c2)c2nc3c(O)nc(S)nc3[nH]2)cc1
inactive: CCRF-CEM > 100 µM | COLO 205 > 100 µM | DU-145 > 100 µM | EKVX > 84.9 µM | HCC 2998 > 100 µM | HCT-116 81.3 µM | HL-60 > 100 µM | HT-29 > 100 µM | IGROV-1 55.1 µM | KM12 > 100 µM | MDA-MB-231 > 53 µM | NCI-H522 > 100 µM | NCI/ADR-RES > 100 µM | OVCAR-3 > 100 µM | SF-539 18.5 µM | SN12C > 88.7 µM | SW-620 > 100 µM | T47D 44.2 µM | TK-10 > 79.4 µM | U-251 42.7 µM

CN1C(=O)[C@](C)(Cc2ccc(F)cc2)N(C(=O)OC(C)(C)C)[C@@H]1C(C)(C)C
inactive: CCRF-CEM 40.9 µM | COLO 205 19.5 µM | DU-145 42.3 µM | EKVX 47.1 µM | HCC 2998 24.3 µM | HCT-116 30 µM | HL-60 11.4 µM | HT-29 22.1 µM | IGROV-1 43.9 µM | KM12 30.5 µM | MDA-MB-231 38.1 µM | NCI-H522 23.1 µM | NCI/ADR-RES 20.4 µM | OVCAR-3 31.5 µM | SF-539 41.2 µM | SN12C 17.9 µM | SW-620 37.3 µM | T47D 26.7 µM | TK-10 80.9 µM | U-251 29.6 µM

COc1ccc(-c2cc(=O)c3ccc(O)cc3o2)cc1OC
inactive: CCRF-CEM 25.8 µM | COLO 205 68.4 µM | DU-145 48 µM | EKVX 43.7 µM | HCC 2998 46.9 µM | HCT-116 30.2 µM | HL-60 23.5 µM | HT-29 41.8 µM | IGROV-1 32.9 µM | KM12 59.3 µM | MDA-MB-231 77.4 µM | NCI-H522 16.6 µM | NCI/ADR-RES 34.9 µM | OVCAR-3 57.3 µM | SF-539 23.4 µM | SN12C 41.3 µM | SW-620 37.8 µM | T47D 25.9 µM | TK-10 59.3 µM | U-251 43.9 µM
